Experimental data: patent US20100151520A1, “Translation Enhancer Elements Of Genes Encoding Human Tau Protein and Human Alpha-Synuclein Protein” (priority 2004, published 2010)
Entries after “also recorded” stand apart in the source; their conditions may differ. One block for each compound: values may come before it.

Columns and labels:
[1] = test system: Transferrin receptor mRNA (TfR mRNA); experiment: Quantitative real-time PCR of transferrin receptor mRNA (positive control) in SY5Y cells; format: cell-based
Method: (§1) Quantitative real-time PCR (qRTPCR) was used to measure steady-state mRNA levels for α-synuclein mRNA relative to […] in response to iron. Neuroblastoma (SY5Y) cells were treated with iron or desferrioxamine (DFO) for 6 hours or 16 hours and control cells were left untreated (U) for the same indicated times (i.e., 6 hours untreated=U6, and 16 hours untreated=U16). TfR mRNA was the experimental positive control mRNA.
(§2) The qRTPCR was conducted as follows. Total RNA was isolated from iron and desferrioxamine treated neuroblastoma cell line, SH-SY5Y according to manufacturers specification (RNAeasy Mini Kit, Qiagen, Valencia, Calif.). The optional on-column DNase digestion with the RNase-Free DNase set (Qiagen) was incorporated into all RNA isolations.
(§3) 3 μg total RNA was primed with oligo-dT and the Superscript II enzyme according to manufacturer's instructions (Invitrogen, Carlsbad, Calif.) to synthesize […] cDNA. For qRTPCR, primer specificity was initially verified by searching for homology to genomic databases using NCBI BLAST. After completion of qRTPCR, the appropriately sized amplicon were confirmed by agarose gel electrophoresis. All reactions were performed in duplicate in a 50 μl volume consisting of 3 μl cDNA, 15 μmol each of the forward and reverse primer of β-Actin and 45 μmol each of the forward and reverse primer of all other primer pairs, and the fluorescent SYBR Green I dye. Fluorescence was measured at the end of each annealing cycle using the ABI Prism 7000 (Applied Biosystems, Foster City, Calif.). Average threshold cycle (Ct) values were measured in the exponential phase of the PCR reaction for each duplicate sample. Average Ct values were normalized against that β-Actin amplified in parallel from the same sample. Relative expression of the treated samples was determined by first normalizing against that of the untreated samples (ΔCT^sample−ΔCT^normal=ΔΔCT) and then calculating the fold change (fold change=2^−ΔΔCt).
(§4) Primers used for quantitative real-time PCR were as follows: […]
The details of the annealing temperature are as follows. […] For real-time PCR, the cDNA was amplified using an ABI PRISM 7000 Sequence Detection System (PE Applied Biosystems, Foster City, Calif.). The dsDNA-specific dye SYBR Green I incorporated into the PCR reaction buffer QuantiTech™ SYBR PCR (Qiagen) to allow for quantitative detection of the PCR product in a 25-μl reaction volume. The temperature profile of the reaction was 95° C. for 10 min, 40 cycles of denaturation at 95° C. for 15 sec, annealing at 60° C. for 30 sec, and extension at 72° C. for 30 sec. An internal housekeeping gene control, β-actin, was used to normalize differences in RNA isolation, RNA degradation, and the efficiencies of the RT. The size of the PCR product was first verified on a 1.5% agarose gel, followed by melting curve analysis.
(§5) Neuroblastoma cells (SY5Y) were treated with each agent for 6 hours or 16 hours and control cells were left untreated (U) for the same indicated times (i.e., 6 hours untreated=U6, and 16 hours untreated=U16).

[2] = test system: Tau mRNA; experiment: Quantitative real-time PCR of Tau mRNA levels in SY5Y cells; format: cell-based, human; conditions: for Tau mRNA levels: 6 or 16 hours (100 μM DFO where stated), FIG. 5
Method: Quantitative real-time PCR (QRTPCR) was performed on RNA extracted from iron/zinc and desferrioxamine treated mRNA. Methods for QRTPCR were as described for priming an α-synuclein amplicon (see Example 1) except that oligonucleotides were (NM016835Rev) 5′[…]3′ (SEQ ID NO:15) and (NM 016835For) 5′[…]3′ (SEQ ID NO:16).
as §5

[3] = target: T1, Iron-Regulatory Protein-1 (IRP-1) binding to α-synuclein mRNA (Homo sapiens, UniProt P21399); experiment: Immunoprecipitation RT-PCR of α-synuclein mRNA bound to IRP-1 in SH-SY5Y lysates; format: cell-based; conditions: iron-treated SH-SY5Y cells, FIG. 6B
T1 construct: endogenous in cells; host or cells: SH-SY5Y neuroblastoma cells (lysates after treatment of the cells)
T1 sequence (P21399 1-889): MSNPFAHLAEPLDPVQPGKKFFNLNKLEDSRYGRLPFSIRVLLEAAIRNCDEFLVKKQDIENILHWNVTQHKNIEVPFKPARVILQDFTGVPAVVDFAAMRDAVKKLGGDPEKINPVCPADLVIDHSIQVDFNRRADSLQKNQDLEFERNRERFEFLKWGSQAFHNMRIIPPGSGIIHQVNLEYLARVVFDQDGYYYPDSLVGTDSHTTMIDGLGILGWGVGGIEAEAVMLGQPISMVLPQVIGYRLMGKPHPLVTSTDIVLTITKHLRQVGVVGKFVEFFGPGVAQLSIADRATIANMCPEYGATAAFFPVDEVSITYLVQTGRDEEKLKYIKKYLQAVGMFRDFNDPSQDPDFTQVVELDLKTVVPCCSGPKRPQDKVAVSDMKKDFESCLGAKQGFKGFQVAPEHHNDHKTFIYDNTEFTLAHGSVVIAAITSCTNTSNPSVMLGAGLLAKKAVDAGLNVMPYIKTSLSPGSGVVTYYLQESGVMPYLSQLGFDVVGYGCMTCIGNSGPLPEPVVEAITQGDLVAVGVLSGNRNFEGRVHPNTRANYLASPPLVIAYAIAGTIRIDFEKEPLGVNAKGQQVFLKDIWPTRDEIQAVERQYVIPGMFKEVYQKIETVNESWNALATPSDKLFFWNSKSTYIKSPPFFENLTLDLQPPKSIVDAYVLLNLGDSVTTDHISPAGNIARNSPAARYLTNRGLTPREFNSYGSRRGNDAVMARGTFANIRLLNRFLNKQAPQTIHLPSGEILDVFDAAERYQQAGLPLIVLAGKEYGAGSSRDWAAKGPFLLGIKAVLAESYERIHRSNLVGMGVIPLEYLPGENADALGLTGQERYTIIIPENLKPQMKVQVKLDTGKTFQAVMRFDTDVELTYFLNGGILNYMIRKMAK
Method: Neuroblastoma cells were treated with (i) DFO ([…]), (ii) feTf (10 μM) or remained untreated. Cells were lysed in RIPA buffer, and cytosolic extracts were immunoprecipitated with antibody to IRP-1 and IRP-2. After washing with Fe-beads the bound mRNA or superatant RNA was reverse transcribed and the mRNAs attached to the IRP-1/IRP—2 were identified by immunoprecipitation of RNA that selectively interacted with IRP-1/IRP-2 (method of Thomson, A. M., et al., Biol. Chem. 2005 Aug. 26; 280(34):30032-45. Epub 2005 Jun. 20.
We tested whether α-synuclein mRNA interacted with IRP-1 or IRP-2 by use of an RNA co-immunoprecipitation technique shown in FIG. 6. In this IPRT-PCR experiment α-synuclein mRNA was selectively co-immunoprecipitated with IRP-1 from neuroblastoma lysates (the presence of ASN mRNA was detected by PCR of cDNA reverse transcribed from mRNA immunopreciptated with IRP-1 on washed beads according to standard methods (Thomson, A. M., et al., (2005) J Biol Chem 280, 30032-30045). Ferritin mRNA was selectively immunopreciptated with both IRP-1 and IRP-2, whereas α-synuclein mRNA was selectively bound to IRP-1, not IRP-2. This technique was semi qualitative PCR, though the amount of α-synuclein mRNA attached IRP-1 was iron dependent in the experiment shown in FIG. 6B. […]

[4] = test system: α-synuclein protein; experiment: Western blot of α-synuclein protein levels in treated SY5Y neuroblastoma cells; format: cell-based, human
[5] = test system: α-synuclein mRNA; experiment: Quantitative real-time PCR of α-synuclein mRNA levels in SY5Y cells; format: cell-based, human; conditions: 6 or 16 hours, relative to beta actin (FIG. 4)
Method: as §1, §2
as §3, with “All reactions were performed in duplicate in a 50 μl volume consisting of 3 μl cDNA, 15 μmol each of the forward and reverse primer of β-Actin and 45 μmol each of the forward and reverse primer of all other primer pairs, and the fluorescent SYBR Green I dye.” left out, “Average Ct values were normalized against that β-Actin amplified in parallel from the same sample.” left out
as §4
The details of the annealing temperature are as follows. […] The dsDNA-specific dye SYBR Green I incorporated into the PCR reaction buffer QuantiTech™ SYBR PCR (Qiagen) to allow for quantitative detection of the PCR product in a 25-μl reaction volume. […]

[6] = test system: α-synuclein 5′ UTR; experiment: Luciferase reporter assay, α-synuclein 5′UTR-pGL3 transfected neuroblastoma cells; format: cell-based, human; conditions: 48 hours, luciferase controlled by α-synuclein 5′ UTR
Method: (§6) To determine whether α-synuclein 5′UTR sequences were iron responsive SH-SY5Y transfection experiments were performed using an ASN 5′UTR pGL3 construct compared to pGL3, and control vector in which the luciferase expression was translated in the absence of the α-synuclein 5′UTR.
A 46 base sequence (SEQ ID NO:21) of the α-synuclein 5′ UTR was synthesized with a HindIII site at the 5′ end and a Nco I site at the 3′ end (Integrated DNA Technologies, Coralville, Iowa) and then ligated into a pGL-3 vector (Promega, Madison Wis.) immediately in front of the luciferase gene, under the control of a SV40 promotor. Wild-type pGL3 or pGL3 containing the α-synuclein 5′ UTR insert upstream of the luciferase promotor (α-synuclein 5′UTR-pGL3) were used. Expression of green fluorescent protein (GFP) within the pGL3 vector, controlled by a SV40 late poly(A) signal was used to control for transfection efficiency. 8×10^5 neuroblastoma HYSY cells were seeded for 24 hours in 60-mm^2 dishes with 5 ml Dulbeccco's modified medium containing 10% fetal bovine serum. For transfection, cells were first rinsed 3× in Phosphate Buffered Saline (PBS) and then treated with 5 μg of purified DNA combined with PolyFect transfection reagent and growth medium, according to the manufacturer's specifications (Qiagen). After a 24 hours incubation at 37° and 5% CO2 to maximize transfection efficiency, cells were washed in PBS 3×, trypsonized and plated to 95% confluence in 96-well plates. Cells were allowed to seed in the 96-well plates for 12 hours in Dulbecco's modified medium containing 10% fetal bovine serum and ampicillin, to select for cells containing the plasmid, which contained an ampicillin resistance gene. […] Treatment medium was prepared fresh the day of experiment and incubated for 1 hour at 37° prior to the experiment to maximize solubility. […] Cells were lysed with 1× Bright-glo luciferase assay buffer and the lysates combined with bright-glo luciferase assay substrate warmed to 37°, according to the specifications of the manufacturer (Promega, Madison, Wis.). All experiments were performed in triplicate. Automated luciferase assays were performed with a Wallac 1420 multi-label counter. GFP expression was quantified at 489/509 nm with the same Wallac 1420 counter to control for transfection efficiency.

[7] = test system: wild-type pGL3 vector; experiment: Luciferase reporter assay, wild-type pGL3 control vector; format: cell-based
Method: as §6
A 46 base sequence (SEQ ID NO:21) of the α-synuclein 5′ UTR was synthesized with a HindIII site at the 5′ end and a Nco I site at the 3′ end (Integrated DNA Technologies, Coralville, Iowa) and then ligated into a pGL-3 vector (Promega, Madison Wis.) immediately in front of the luciferase gene, under the control of a SV40 promotor. Wild-type pGL3 or pGL3 containing the α-synuclein 5′ UTR insert upstream of the luciferase promotor (α-synuclein 5′UTR-pGL3) were used. Expression of green fluorescent protein (GFP) within the pGL3 vector, controlled by a SV40 late poly(A) signal was used to control for transfection efficiency. 8×10^5 neuroblastoma HYSY cells were seeded for 24 hours in 60-mm^2 dishes with 5 ml Dulbeccco's modified medium containing 10% fetal bovine serum. […] GFP expression was quantified at 489/509 nm with the same Wallac 1420 counter to control for transfection efficiency.

IRP-1 binding (to α-synuclein mRNA) [3]: reduced
Compound: iron
fold reduction for TfR mRNA ([1]; 400 micromolar iron (16 h), FIG. 5): 0.45 fold | fold reduction for Tau mRNA ([2]; 400 micromolar iron (16 h)): 0.66 fold

Compound: CC(=O)N(O)CCCCCNC(=O)CCC(=O)N(O)CCCCCNC(=O)CCC(=O)N(O)CCCCCN [DFO, desferrioxamine]
steady-state levels of α-synuclein protein ([4]; 100 μM DFO (16 h)): reduced | intracellular levels of α-synuclein protein ([4]; short-term (6 h) and long-term (3 d) desferrioxamine treatment): dramatic reduction | α-synuclein mRNA levels [5]: unchanged; also recorded: not modulated | α-synuclein mRNA levels ([5]; listed as desferrioxamine): unchanged | TfR mRNA up-regulation in response to DFO ([1]; DFO (100 μM where stated), FIG. 4, relative to beta actin): 3 fold | TfR mRNA up-regulation in response to DFO ([1]; FIG. 5 (Tau experiment), 16 hours DFO where stated): 4.5 fold | Tau mRNA levels [2]: up-regulated; also recorded: dramatically changed | increase in induction for Tau mRNA ([2]; 16 hours treatment with DFO, relative to beta actin): 5 fold | decrease in luminescence ([6]; 50 mM DFO): 25% | decrease in luminescence ([6]; 100 mM DFO, p<0.001): 50% | effect on luciferase activity [7]: no effect

Compound: ferric ammonium citrate [FAC]
α-synuclein protein levels (monomer, 15 kDa) ([4]; 100 μM FAC, 6 hour and 3 days, Western blot (FIG. 3)): increase | α-synuclein mRNA levels [5]: did not change as significantly although it was reduced; also recorded: not modulated | TfR mRNA reduction by FAC ([1]; FIG. 5 (Tau experiment)): 4 fold | Tau mRNA levels [2]: down regulated | increase in luminescence ([6]; 10 mg/ml FAC): 5 fold | increase in luminescence ([6]; 100 mg/ml FAC, p<0.001): 20 fold | effect on luciferase activity [7]: no effect

Compound: zinc
TfR mRNA responsiveness to zinc (control for iron specificity) ([1]; FIG. 5): surprisingly responsive
